Measurements as given in patent US12076310B2, “Compounds and methods for the treatment of acute myelogenous leukemia” (University of Rochester, priority 2021, dated 2024).
“Also recorded” adds a separate entry of the source.

Columns and labels:
[1] = system: leukemia cell lines; experiment: Screening of hits and structural analogs for effects on proliferation of leukemia cell lines; type: cell-based, human; conditions: dose range tested; data not shown
[2] = system: MOLM13, MV411, THP1 and U937 cells; experiment: Proliferation of cell lines by counting cells in a hemocytometer; type: cell-based, human; conditions: range of concentrations, 72 hours
Protocol: Effect of UR778Br on proliferation of cell lines: Proliferation of MOLM13, MV411, THP1 and U937 cells was measured by counting cells in a hemocytometer. Briefly, cells were seeded at 20,000 to 40,000 cells/well in triplicate wells of a 96 well plate and treated with a range of UR778Br doses and incubated at 37° C. with 5% CO2 in a humidified incubator. Cell counts were determined at 24-, 48- and 72 hours.

[3] = system: MOLM13, MV411, THP1 and U937; experiment: Viability of cell lines by the MTS assay; type: cell-based, human; conditions: range of concentrations, 48 hours
Protocol: Effect of UR778Br on viability of cell lines: Viability of MOLM13, MV411, THIP1 and U937 was determined by the MTS assay. Briefly, 20,000 to 40,000 cells/well were seeded in triplicate wells of a 96 well plate and treated with a range of UR778Br doses and incubated for 48 to 72 hours at 37° C. with 5% CO2 in a humidified incubator. Cell Titre96R Aqueous One Solution Cell Proliferation Assay reagent (Promega Corp., catalog number: G3580) diluted 1-10 in complete RPMI medium was added and cells were incubated for 4 hours. The optical density (OD) values were read at 490 nm wavelength using BioRad iMark microplate reader. Experiments were performed in triplicates; data are expressed as the mean of the triplicate determinations (X±SD) of a representative experiment in % of absorbance by samples with untreated cells [=100%].

[4] = system: MOLM13, MV411, THP1 and U937 cells; experiment: Cell cycle analysis by flow cytometry; type: cell-based, human; conditions: range of concentrations, 24 hours
Protocol: Cell cycle analysis: For cell cycle analysis, Leukemia cell lines were washed with 1× phosphate buffered saline (PBS Mediatech, Inc., Manassas, VA, USA) and centrifuged at 1200 rpm for 8 minutes. Cell pellet was re-suspended in 100 microliters of Cytofix/Cytoperm™ (BD Biosciences, Cat No. 554722) buffer for at room temperature (RT) for 15 minutes. Cell suspension washed with 1×PBS and centrifuged at 1200 rpm for 8 minutes and re-suspended in 1 ml of culture media containing 1 μl of Vybrant® DyeCycler™ Violet Stain (ThermoFisher Scientific, Cat No. V35003). Cell suspensions were incubated at 37° C. in a 5% CO2 incubator for least 30 minutes. Cell suspensions were analyzed using a LSRII™ flow cytometer (BD Biosciences, San Jose, CA, USA). A minimum of 8,000 cells were included in the analysis of each sample. Data were analyzed by FlowJo software (Tree Star, Ashland, OR, USA) and collected on linear scale for forward and side scatter (i.e., FSC and SSC, respectively) and on a linear scale for violet fluorescence channel […].

[5] = system: MOLM13, MV411, THP1 and U937 cells; experiment: Apoptosis by Western blot of cleaved PARP; type: cell-based, human; conditions: 25 μM, 24 hours
Protocol: For measurement of apoptosis by Western blot the MOLM13, MV41, THP1 and U937 cells treated with UR778Br for 24 hours were lysed and expression of cleaved PARP, an indicator of apoptosis, was measured as described above.

[6] = system: IQGAP1; experiment: IQGAP1 expression in MOLM13 cells (immunoblot); type: cell-based, human; conditions: 25 μM, 24 hours
[7] = system: MOLM13, MV411, THP1 and U937; experiment: Colony formation of leukemia cell lines in MethoCult; type: cell-based, human; conditions: 6.25 μM
Protocol: Effect of UR778Br on colony formation cell lines: MOLM13, MV411, THP1 and U937 were added to MethoCult H4435 Enriched (Stem Cell Technologies, catalog number 04435) to achieve concentration of 2000 cells/ml, 500 cells/ml and 200 cells/ml. UR778br was added to achieve a range of concentrations. Each condition was done in triplicate. The plates were incubated at 37° C. with 5% CO2 in a humidified incubator Colonies were counted at 7, 14 and 21 days.

[8] = system: normal bone marrow cells; experiment: Colony formation by normal bone marrow in MethoCult; type: cell-based, human
Protocol: Effect of UR778Br on colony formation by normal bone marrow: Vials of cryopreserved aliquots were thawed the in a 37° C. water bath. Nine ml of RPMI with 2% FBS were added dropwise to the cells in 1 ml of freezing media, centrifuged at 1000 rpm for 5 min and re-suspended in 5 ml of RPMI. The cells were counted in a hemocytometer and viability estimated by Trypan blue dye exclusion. The cells were added to MethoCult H4435 Enriched (Stem Cell Technologies, catalog number 04435) to achieve concentrations of 5×10^4 to 1×10^5 viable cells/ml. UR778Br was added at indicated concentrations. The mixture was vortexed and allowed to settle. Each condition was dispersed in triplicate or quadruplicate. The plates were incubated at 37° C. with 5% CO2 in a humidified incubator and colonies were counted at 7, 14 and 21 days. Images of colony forming unit assays were acquired using the Celligo imaging cytometer (Nexcelom Biosciences) at a resolution of 1 pixel/μm. Celligo instrument software was used for image processing.

[9] = system: primary human AML cells; experiment: Viability of primary AML cells (annexin-V/DAPI flow cytometry); type: cell-based; conditions: dose range, 48 hours
Protocol: Effect of UR778Br on apoptosis in primary AML cells: Primary AML cells were treated with DMSO or varying concentrations of UR778Br and cytarabine 5 μM and cultured in a 37° C., 5% CO2 incubator for 24 and 48 hours. The cells were stained for 15 min in annexin-V binding buffer (10 mM HEPES/NaOH, pH 7.4, 140 mM NaCl, 2.5 mM CaCl2)) containing annexin-V-APC antibody (BD Biosciences) and DAPI (Sigma). Stained cells were analyzed immediately on using a LSRII™ flow cytometer (BD Biosciences, San Jose, CA, USA).
Effect of UR778Br on viability of primary human AML cells: Vials of primary AML cells cryopreserved in liquid nitrogen were thawed rapidly in a 37° C. water bath. The contents, generally one ml, were transferred to a 15 ml conical tube, one tenth the volume of DNase was added (bovine pancreas deoxyribonuclease, Sigma Aldrich D4263-5VL), it was mixed gently and incubated in a 37° C. water bath for 90 seconds. 9 ml of DMEM with 2% FBS was added dropwise and mixed gently. Samples were then centrifuged for 5 to 6 minutes, aspirated and the supernatant discarded. […] The cells were counted in a hemocytometer with viability estimated by Trypan blue dye exclusion.
Primary cells were cultured in 37° C., 5% CO2 incubator. […] Stained cells were analyzed immediately on BD FACS Celesta, flow cytometer (BD Biosciences). Viable cells were scored as annexin-V and DAPI double negative cells.

[10] = system: primary AML cells; experiment: Clonogenicity of primary AML cells in MethoCult; type: cell-based, human
Protocol: Effect of UR778Br on clonogenicity of primary AML cells: Vials of primary AML cells cryopreserved in liquid nitrogen were thawed rapidly in a 37° C. water bath. The contents, generally one ml, were transferred to a 15 ml conical tube, one tenth the volume of DNase was added (bovine pancreas deoxyribonuclease, Sigma Aldrich D4263-5VL), it was mixed gently and incubated in a 37° C. water bath for 90 seconds. 9 ml of DMEM with 2% FBS was added dropwise and mixed gently. Samples were then centrifuged for 5 to 6 minutes, aspirated and the supernatant discarded. 70 μl of DNase were added and mixed gently. 10 ml of DMEM with 2% FBS was added slowly to resuspend and then the sample was centrifuged for 5 to 6 minutes. Supernatant was discarded, 50 μl of DNase was added, sample was mixed gently and the pellet was resuspended in 5 ml of IMDM+10% FBS, L-glutamine 2 mM (GIBCO) and penicillin and streptomycin (50 units and 50 mcg/ml). The cells were counted in a hemocytometer with viability estimated by Trypan blue dye exclusion.
The cell suspension was then added to MethoCult Enriched H4435 (Stem Cell Technologies, catalog number 04435) to achieve a final concentration between 5×10^4 to 2×10^5/ml. DMSO, UR778Br or cytarabine were added to achieve indicated concentrations. […] The plates were incubated 37° C., 5% CO2 incubator and colonies were counted at 7, 14 and 21 days. […]

CCCCN1C(=O)C(O)(CC(=O)c2ccccc2O)c2cc(Br)ccc21 (stereo not shown) [UR778Br]
inhibition of proliferation of leukemia cells (anti-proliferative activity) [1]: most potent structural analog of AK778 | proliferation [2]: dose dependent reduction of proliferation | viability [3]: decreased viability in AML cell lines in a dose-dependent fashion; also recorded: dose-dependent decrease in viability | cell cycle arrest [4]: cell cycle arrest in the G2M phase in a dose-dependent manner; also recorded: dose-dependent arrest in G2/M phase of the cell cycle | apoptosis (expression of cleaved PARP) [5]: apoptosis in MOLM13 cells | apoptosis (expression of cleaved PARP) ([5]; listed as UR778B2): apoptosis in the four cell lines | expression of IQGAP1 [6]: decreased expression of IQGAP1 | colony formation units [7]: suppress clonogenic progenitors; also recorded: inhibition of the colony formation units | colony formation by normal bone marrow ([8]; 6.25 μM): did not inhibit colony formation by normal bone marrow; also recorded: majority of normal bone marrow samples do not exhibit reduced colony formation | colony formation by normal primary bone marrow cells ([8]; 12.5 μM compared with 6.25 μM): inhibition of the colony formation units to a greater degree than at 6.25 μM concentration | viability (annexin-V and DAPI double negative cells) [9]: dose dependent decrease in viability | colony formation by three primary AML cells ([10]; concentrations as low as 6.25 μM): blocks colony formation | colony formation units of primary AML cells ([10]; varying concentrations): inhibition of the colony formation units
